Measured values from patent US9944597B2, “Polysubstituted pyrroles having microtubule-disrupting, cytotoxic and antitumor activities and methods of use thereof” (THE BOARD OF REGENTS OF THE UNIVERSITY OF TEXAS SYSTEM, priority 2013, dated 2018).
Like-named read-outs stand apart in the source and are kept apart here.

How the values were obtained:
[1] = tested on: HeLa (human cervical cancer cells); assay: Antiproliferative SRB assay, HeLa; format: cell-based
Experimental: (§1) Cell Culture. Various representative cancer and other cell lines were sourced and grown as described previously [Mooberry, S. L., et al., Mol. Pharm. 72, 132-140 (2007)]. MDA-MB-435 (human melanoma cancer cells), and MDA-MB-231 (human breast cancer cells) were grown in IMEM Richter's Medium (Life Technologies, Grand Island, N.Y.) with 10% FBS (Hyclone, Logan, Utah) and 25 μg/mL gentamicin sulfate (Life Technologies). A-10 (embryonic rat vascular smooth muscle cells) and HeLa (human cervical cancer cells), SK-OV-3 (human ovarian cancer cells) and SK-OV-3-MDR-1-M6/6 (a clone of the SK-OV-3 that was generated from SK-OV-3 cells by adenovirus-mediated expression of MDR1) were grown in Basal Medium Eagle (BME, Sigma-Aldrich, St. Louis, Mo.) containing Earle's salts, 50 μg/ml gentamicin sulfate, and 10% FBS. HeLa cells (a single-cell clone derived from transduction of HeLa cells with wild-type (WT) βIII-tubulin) were grown in Dulbecco's Modified Eagle's Medium (DMEM, Life Technologies) containing 50 μg/mL gentamicin sulfate and 10% FBS.
(§2) Antiproliferative Effects. The pyrrole compounds were evaluated for their antiproliferative effects in a panel of cancer cell lines. Cells were plated into 96-well plates at predetermined densities and allowed to attach and proliferate for 24 hr, and then the compounds were added. After a 48 hr exposure to the compounds, the cells were fixed with trichloroacetic acid and cellular protein was determined using the sulforhodamine B (SRB) assay (Skehan et al., J. Natl. Cancer Inst. 82, 1107-12, (1990); Boyd and Paull Drug Devel. Res. 34, 91-109, (1995)). Concentration response curves were constructed, and the IC50 (the concentration required to inhibit proliferation by 50%) values were determined from the linear portions of the log concentration-response curves as described previously [Tinley, T. L., et al., Cancer Res. 63, 3211-3220, (2003)] as shown in Table 48.
(§3) First, drug resistance mediated by the expression of βIII tubulin was evaluated in an isogenic HeLa cell line pair. Expression of the βIII tubulin isotype is associated with clinical drug resistance to the taxanes in ovarian cancer, non small-cell lung cancer and breast cancer [Galmarini, C. M., et al., Clin. Cancer Res. 14, 4511-4516 (2008)]. Secondly, drug resistance mediated by the expression of the drug efflux pump protein, Pgp, was evaluated in the isogenic SK-OV-3 cell line pair. The expression of Pgp can lead to lower intracellular drug concentrations and diminished cytotoxic effects both in vitro and in vivo. All tubulin-binding anticancer drugs used currently in the clinic, except cabazitaxel, are substrates for Pgp, thus limiting their utility in drug resistant tumors [Penson, R. T., et al., Gynecol. Oncol. 93, 98-106 (2004)]. Differences in sensitivity between the parent and transformed cell line, indicative of resistance, was determined by calculating relative resistance (Rr) values in the two pairs of isogenic cell lines (dividing the IC50 of the expressing cell line by the IC50 of the parental cell line).

A-10 cells = assay: Cellular microtubule loss by indirect immunofluorescence; format: cell-based, rat; conditions: read-out: EC50 Values (nM) for Microtubule Loss in A-10 cells
Experimental: The effects of representative compounds on cellular microtubules were evaluated in A-10 (embryonic rat vascular smooth muscle cell line) cells using indirect immunofluorescence techniques as previously described (Tinley et al., Cancer Res. 63, 3211-20 (2003)). Cells were visualized using a Nikon Eclipse 80i fluorescence microscope and NIS Elements software. Changes in both interphase and mitotic microtubules were noted and photographed. The EC50 values, the concentration that causes approximately 50% loss of interphase microtubules was determined by evaluating a range of concentrations of each compound and the percent cellular microtubule depolymerization that was observed visually at each concentration was noted.
Microtubules were visualized by indirect immunofluorescence using a β-tubulin antibody, and the DNA was visualized with DAPI. A representative concentration response curve for NT-7-16 is also shown in FIG. 1 that was used to calculate its corresponding EC50 for microtubule loss. Concentration response curves for microtubule loss were plotted using data from at least three experiments for each compound and the corresponding EC50 values for microtubule loss are presented in Table 50.

[2] = tested on: MDA-MB-435 (human melanoma cancer cells); assay: Antiproliferative SRB assay, MDA-MB-435; format: cell-based; conditions: read-out: MDA-MB-435 Anti-Proliferative Activity, IC50
Experimental: as §1, §2

SK-OV-3-MDR-1-6/6 cells = assay: Antiproliferative SRB assay, Pgp expressing SK-OV-3; format: cell-based, human; conditions: for IC50: Table 49, Pgp expressing line, 48 hr, SRB assay; for Rr (Pgp): relative resistance: IC50 of expressing line divided by IC50 of parental SK-OV-3
Experimental: as §1, §2
as §3, with “The expression of Pgp can lead to lower intracellular drug concentrations and diminished cytotoxic effects both in vitro and in vivo.” left out

HeLa WT-β-III cells = assay: Antiproliferative SRB assay, βIII-tubulin expressing HeLa; format: cell-based, human; conditions: for IC50: Table 49, βIII tubulin expressing line, 48 hr, SRB assay; for Rr (β-III): relative resistance: IC50 of expressing line divided by IC50 of parental HeLa
Experimental: as §1, §2, §3

[3] = tested on: SK-OV-3 (human ovarian cancer cells); assay: Antiproliferative SRB assay, SK-OV-3; format: cell-based
Experimental: as §1, §2
as §3, with “The expression of Pgp can lead to lower intracellular drug concentrations and diminished cytotoxic effects both in vitro and in vivo.” left out

[4] = biological target: T1, purified porcine brain tubulin (Sus scrofa, UniProt P02554); assay: Inhibition of polymerization of purified tubulin (absorbance at 340 nm); format: biochemical
T1 construct: of Purified Porcine Brain Tubulin; from tissue; host or cells: porcine brain
T1 sequence (P02554 whole entry): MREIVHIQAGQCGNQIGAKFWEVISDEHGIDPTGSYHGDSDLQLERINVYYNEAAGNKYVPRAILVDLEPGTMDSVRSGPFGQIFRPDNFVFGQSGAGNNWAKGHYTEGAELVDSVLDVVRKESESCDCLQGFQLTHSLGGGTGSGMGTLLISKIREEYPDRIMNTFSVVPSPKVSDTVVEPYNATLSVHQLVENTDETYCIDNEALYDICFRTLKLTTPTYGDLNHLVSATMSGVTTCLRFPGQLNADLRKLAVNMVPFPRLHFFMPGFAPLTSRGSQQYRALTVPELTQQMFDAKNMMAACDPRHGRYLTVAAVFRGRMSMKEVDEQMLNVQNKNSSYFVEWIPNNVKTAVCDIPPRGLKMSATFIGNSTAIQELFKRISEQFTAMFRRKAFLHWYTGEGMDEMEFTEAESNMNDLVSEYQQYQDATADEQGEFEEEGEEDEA
T1 sequence (P02550 whole entry partner): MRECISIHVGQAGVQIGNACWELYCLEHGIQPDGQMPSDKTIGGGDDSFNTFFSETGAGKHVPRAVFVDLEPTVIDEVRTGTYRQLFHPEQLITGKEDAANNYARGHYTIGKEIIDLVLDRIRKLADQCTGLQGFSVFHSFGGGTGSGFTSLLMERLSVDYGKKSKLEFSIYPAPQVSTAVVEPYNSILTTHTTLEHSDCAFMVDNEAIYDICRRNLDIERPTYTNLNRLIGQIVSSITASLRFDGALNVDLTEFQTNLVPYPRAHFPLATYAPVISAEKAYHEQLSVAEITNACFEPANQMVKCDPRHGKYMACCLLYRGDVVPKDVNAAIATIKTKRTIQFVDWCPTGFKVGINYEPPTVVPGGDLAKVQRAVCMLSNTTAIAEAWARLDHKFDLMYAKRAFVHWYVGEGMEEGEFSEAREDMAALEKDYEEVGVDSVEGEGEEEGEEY

[5] = Homo sapiens, HeLa, Table 48, 48 hr exposure, read-out: HeLa Anti-Proliferative Activity, IC50
[6] = Homo sapiens, HeLa, Table 49, parental line, 48 hr, read-out: HeLa IC50
[7] = Rattus norvegicus, A10, Table 50, concentration causing approximately 50% loss of interphase microtubules
[8] = Homo sapiens, MDA-MB-435, Table 48, 48 hr exposure, SRB assay
[9] = Homo sapiens, MDA-MB-435, Table 52
[10] = Homo sapiens, SK-OV-3, Table 48, 48 hr exposure, read-out: SK-OV-3 Anti-Proliferative Activity, IC50
[11] = Homo sapiens, SK-OV-3, Table 49, parental line, 48 hr, read-out: SK-OV-3 IC50

Compound	IC50 [1, 5] [nM]	EC50 (A-10 cells; [7]) [nM]	IC50 [2, 8] [nM]	IC50 [2, 9] [nM]	IC50 (SK-OV-3-MDR-1-6/6 cells; Homo sapiens, SK-OV-3) [nM]	IC50 (HeLa WT-β-III cells; Homo sapiens, HeLa) [nM]	melting point [°C]	IC50 [3, 10] [nM]	IC50 [1, 6] [nM]	Rr (Pgp) (SK-OV-3-MDR-1-6/6 cells)	Rr (β-III) (HeLa WT-β-III cells)	IC50 [3, 11] [nM]	also measured
CCCNC=C1NC(C(=O)OCC)C(Br)=C1c1ccc(OC)c(OC)c1OC (centres unmarked) [Example 17, 3-Bromo-5-(N-Propylaminomethylene)-4-(2,3,4-trimethoxyphenyl)-1H-pyrrole 2-carboxylic acid ethyl ester]	2450	4900	2630	2630	3570	2010	143 to 145	3020	2450	1.2	0.8	3020	
CCOC(=O)c1[nH]c(C=NO)c(-c2ccc(OC)c(OC)c2OC)c1Br (mixture of isomers) [Example 10a, Cis/Trans-3-Bromo-4-(2,3,4-trimethoxyphenyl)-5-oximino-1H-pyrrole 2-carboxylic acid ethyl ester]										1.2	0.9		IC50 ([1]; Table 48, 48 hr exposure, read-out: HeLa Anti-Proliferative Activity, IC50): 5 ± 0.3 nM; IC50 ([1]; Table 49, parental line, 48 hr, read-out: HeLa IC50): 5 ± 0.3 nM; % Inhibition of Tubulin Polymerization ([4]; compound at 2 μM): 75%; EC50 (A-10 cells; Table 50, concentration causing approximately 50% loss of interphase microtubules): 9.8 nM; EC50 (A-10 cells; Table 52): 8.9 nM; IC50 ([2]; Table 48, 48 hr exposure, SRB assay): 2.7 ± 0.2 nM; IC50 ([2]; Table 52): 2.7 ± 0.2 nM; IC50 (SK-OV-3-MDR-1-6/6 cells): 6.6 ± 1.2 nM; IC50 (HeLa WT-β-III cells): 4.1 ± 1 nM; IC50 ([3]; Table 48, 48 hr exposure, read-out: SK-OV-3 Anti-Proliferative Activity, IC50): 5.3 ± 0.2 nM; IC50 ([3]; Table 49, parental line, 48 hr, read-out: SK-OV-3 IC50): 5.3 ± 0.2 nM
CCOC(=O)c1[nH]c(Br)c(-c2ccc(OC)c(OC)c2OC)c1Br [Example 22, 3,5-Dibromo-4-(2,3,4-trimethoxyphenyl)-1H-pyrrole-2-carboxylic acid ethyl ester]	12.9 ± 0.8	34.5	10.4 ± 0.5		10.6 ± 0.3	15.7 ± 0.2		15.2 ± 0.8	12.9 ± 0.8	0.7	1.2	15.2 ± 0.8	inhibition at 1 µM ([4]; compound at 1 μM): 53%
CCCNC=C1NC(C(=O)OCC)C(Cl)=C1c1ccc(OC)c(OC)c1OC (centres unmarked) [Example 18, 3-Chloro-5-(N-Propylaminomethylene)-4-(2,3,4-Trimethoxyphenyl)-1H-pyrrole 2-carboxylic acid ethyl ester]	14.3 ± 0.8	31	12.6 ± 0.4	12.6 ± 0.4	19 ± 1	11.2 ± 0.4	166 to 168	20.7 ± 1.9	14.3 ± 0.8	0.9	0.8	20.7 ± 1.9	

Continued, in another order:

IC50 [1, 5] [nM]	EC50 (A-10 cells; [7]) [nM]	IC50 [2, 8] [nM]	IC50 [2, 9] [nM]	IC50 (SK-OV-3-MDR-1-6/6 cells; Homo sapiens, SK-OV-3) [nM]	IC50 (HeLa WT-β-III cells; Homo sapiens, HeLa) [nM]	melting point [°C]	IC50 [3, 10] [nM]	Compound	IC50 [1, 6] [nM]	Rr (Pgp) (SK-OV-3-MDR-1-6/6 cells)	Rr (β-III) (HeLa WT-β-III cells)	IC50 [3, 11] [nM]	also measured
15 ± 0.5	35	13 ± 0.4	13 ± 0.4	23.6 ± 1	12.3 ± 0.3	143 to 145	27.8 ± 1.3	CCOC(=O)c1[nH]c(CN)c(-c2ccc(OC)c(OC)c2OC)c1Cl [Example 14]	15 ± 0.5	0.8	0.8	27.8 ± 1.3	
43.5 ± 1.7	107	64 ± 8.5	64 ± 8.5	76 ± 22.9	106 ± 6.6	193 to 195	67.8 ± 16.2	CCOC(=O)c1[nH]c(C=O)c(-c2ccc(OC)c(OC)c2OC)c1Cl [Example 3, 3-Chloro-4-(2,3,4-trimethoxyphenyl)-5-formyl-1H-pyrrole 2-carboxylic acid ethyl ester]	43.5 ± 1.7	1.1	2.4	67.8 ± 16.2	
19.5 ± 0.6	36	15.8 ± 0.9	15.8 ± 0.9	22.4 ± 0.9	15.6 ± 0.4	176 to 178	23.1 ± 1.8	CCOC(=O)c1[nH]c(CN)c(-c2ccc(OC)c(OC)c2OC)c1Br [Example 13, 5-(Aminomethylene)-3-Bromo-4-(2,3,4-trimethoxyphenyl)-1H-pyrrole 2-carboxylic acid ethyl ester]	19.5 ± 0.6	1.0	0.8	23.1 ± 1.8	
123 ± 6.5	170	87.7 ± 10	87.7 ± 10	419 ± 30.4	109 ± 9.5	135 to 140	175 ± 30.4	CCOC(=O)c1[nH]c(C=NO)c(-c2ccc(OC)c(OC)c2OC)c1Cl (mixture of isomers) [Example 21, Cis/Trans-3-chloro-4-(2,3,4-trimethoxyphenyl)-5-oximino-1H-pyrrole 2-carboxylic acid ethyl ester]	123 ± 6.5	1.9	0.9	175 ± 30.4	
131 ± 8	1060	116 ± 4.3		231 ± 118	137	151 to 153	211	CCOC(=O)c1[nH]c(Cl)c(-c2ccc(OC)c(OC)c2OC)c1Cl [Example 23, 3,5-Dichloro-4-(2,3,4-Trimethoxyphenyl)-1H-pyrrole-2-carboxylic acid ethyl ester]	131 ± 8	1.1	1.0	211	
